Measurements from ChEMBL document CHEMBL3286257, “Development of second generation EP2 antagonists with high selectivity” (Eur J Med Chem, 2014).

Biological target: Prostaglandin E2 receptor EP2 subtype (Homo sapiens) (UniProt P43116)
Assay: Antagonist activity at EP2 receptor (unknown origin) expressed in rat C6 cells assessed as inhibition of PGE2-induced response
Format: cell-based

Chain of Prostaglandin E2 receptor EP2 subtype (Homo sapiens) (P43116 whole entry): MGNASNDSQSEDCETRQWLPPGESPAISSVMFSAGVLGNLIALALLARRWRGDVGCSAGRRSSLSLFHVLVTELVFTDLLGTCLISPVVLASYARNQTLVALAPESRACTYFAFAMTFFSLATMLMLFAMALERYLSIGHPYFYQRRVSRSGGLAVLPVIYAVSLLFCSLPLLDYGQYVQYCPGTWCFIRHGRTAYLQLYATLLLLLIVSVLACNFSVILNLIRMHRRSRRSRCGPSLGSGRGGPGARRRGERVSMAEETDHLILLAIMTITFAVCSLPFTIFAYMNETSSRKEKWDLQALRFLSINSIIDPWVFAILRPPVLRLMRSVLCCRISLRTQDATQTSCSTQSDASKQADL

| SMILES | Kb [nM] |
| --- | --- |
| Cc1cc2ccccc2n1CCNC(=O)c1ccc(C#N)c(F)c1 | 140 |
| Cc1cc2ccccc2n1CCNC(=O)c1cccc(N2CCN(C)CC2)c1 | 770 |
| Cc1cc2ccccc2n1CCNC(=O)c1ccc(N(C)C)c(F)c1 | 18.1 |
| Cc1cc2ccccc2n1CCNC(=O)c1ccc(N2CCC(C)CC2)cc1 | 30.3 |
| Cc1cc2ccccc2n1CCNC(=O)c1ccc(S(N)(=O)=O)cc1 | 486 |
| Cc1cc2ccccc2n1CCNC(=O)c1ccc(C(N)=O)cc1 | 150 |
| CCN(CC)c1ccc(C(=O)OCCn2c(C)cc3ccccc32)cc1 | > 1000 |
| Cc1[nH]c2ccccc2c1CCNC(=O)c1ccc(N2CCN(C)CC2)cc1 | 135 |
| Cc1cc2ccccc2n1CCNC(=O)c1ccc(N2CCN(C)CC2)cc1 | 64 |
| CC1=Nc2ccccc2C1CCNC(=O)c1cnc(N2CCOCC2)nc1 (configuration not stated) | 280 |
| Cc1cc2ccccc2n1CCNC(=O)c1cccc(S(N)(=O)=O)c1 | > 1000 |
| CCNc1ccc(C(=O)NCCn2c(C)cc3ccccc32)cc1C(F)(F)F | 20.2 |
| COc1ccc(C(=O)NCCn2c(C)cc3ccccc32)cc1F | 86.8 |
| Cc1cc2ccccc2n1CCNC(=O)c1ccc(C#N)cc1 | 140 |
| Cc1cc2ccccc2n1CCNC(=O)c1nc2cc(F)ccc2[nH]1 | 130 |
| CC(=O)Nc1ccc(C(=O)NCCn2c(C)cc3ccccc32)cc1F | 530 |
| CC(=O)Oc1ccc(C(=O)NCCn2c(C)cc3ccccc32)cc1 | 150 |
| Cc1cc2ccccc2n1CCNC(=O)c1ccc(N2CCCN(C)CC2)cc1 | 148 |
| Cc1cc2ccccc2n1CCNC(=O)c1cccnc1N | 520 |
| COc1ccc(C(=O)NCCn2c(C)cc3ccccc32)cc1OC | 22.3 |
| Cc1cc2ccccc2n1CCNC(=O)c1ccc(C2CCCN(C(=O)OC(C)(C)C)C2)cc1 (configuration not stated) | 95 |
| Cc1cc2ccccc2n1CCNC(=O)c1cnc2ccc(F)cc2c1O | 175 |
| Cc1cc2ccccc2n1CCNC(=O)C1CCC(c2ncccn2)CC1 (configuration not stated) | 380 |
| Cc1cc2ccccc2n1CCNC(=O)c1cnc(N2CCOCC2)nc1 | 76.5 |

| SMILES | Kb [nM] |
| --- | --- |
| CC(=O)Nc1ccc(C(=O)NCCc2c(C)[nH]c3ccccc23)cc1 | 138 |
| Cc1cc2ccccc2n1CCNC(=O)c1cnc(N)nc1 | > 1000 |
| Cc1cc2ccccc2n1CCNC(=O)c1ccc(NC(=O)c2ccccc2F)cc1 | 51 |
| Cc1cc2ccccc2n1CCNC(=O)c1ccc(CN)cc1 | 690 |
| Cc1cc2ccccc2n1CCNC(=O)c1ccc(CN2CCOCC2)cc1 | 970 |
| Cc1cc2ccccc2n1C1CCCN(C(=O)c2ccc(N3CCOCC3)cc2)C1 (configuration not stated) | > 1000 |
| CCN(CC)c1ccc(C(=O)NCCn2c(C)nc3ccccc32)cc1 | 190 |
| CCN(CC)c1ccc(C(=O)NCCn2c(C)cc3ccccc32)cc1C(F)(F)F | 310 |
| CCNc1ncc(C(=O)NCCC2C(C)=Nc3ccccc32)cn1 (configuration not stated) | 155 |
| O=C(NC1CCc2[nH]c3ccccc3c2C1)c1ccc(N2CCOCC2)cc1 (configuration not stated) | > 1000 |
| Cc1cc2ccccc2n1CCNC(=O)c1ccc(C(=O)OC(C)(C)C)cc1 | 100 |
| CCN(CC)c1ccc(C(=O)NCCn2c(C)cc3ccccc32)cc1F | 4.6 |
| Cc1cc2ccccc2n1CCNC(=O)c1ccc(OC2CCNCC2)cc1 | > 1000 |
| Cc1[nH]c2ccccc2c1CCNC(=O)c1ccc(N2CCOCC2)c(F)c1 | 66 |
| Cc1cc2ccccc2n1CCNC(=O)c1ccc(C(=O)N(C)C)cc1 | > 1000 |
| Cc1[nH]c2ccccc2c1CCNC(=O)c1ccc(N2CCCCC2)cc1 | 19.8 |
| Cc1cc2cc(F)ccc2n1CCNC(=O)c1ccc(N2CCOCC2)cc1 | 14.9 |
| Cc1cc2ccccc2n1CCNC(=O)c1ccc(C2CCCNC2)cc1 (configuration not stated) | > 1000 |
| CCN(CC)C(=O)c1ccc(C(=O)NCCn2c(C)cc3ccccc32)cc1 | 800 |
| CCNc1ncc(C(=O)NCCn2c(C)cc3ccccc32)cn1 | 57.8 |
| CCN(CC)c1ccc(C(=O)NCCCn2c(C)cc3ccccc32)cc1 | > 1000 |
| Cc1cc2cc(F)ccc2n1CCNC(=O)c1ccc(N2CCN(C)CC2)c(F)c1 | 62.2 |
| COc1ccc(C(=O)NCCn2c(C)cc3ccccc32)cc1 | 75.6 |
